The target in data set [1] is human phosphodiesterase III (PDE III). The settings on record: cited from earlier work.
The subject of data set [2] is erythroid or myelomonocytic differentiation. The settings on record: stimulated by erythropoietin or granulocyte-macrophage colony-stimulating factor; cited from earlier work.
The conditions of data set [3]: in vivo; cited from earlier work.
The test system of another data set is platelet count. The settings on record: patients with thrombocythemia secondary to a myeloproliferative disorder; cited from earlier work.
Data set [4] deals with human megakaryocytopoiesis. Conditions: cited from earlier work.
Data set [5] concerns human phosphodiesterase III (PDE III). Briefly: PDE III inhibition. In kind it is biochemical. The text has this:
In early volunteer trials, the most frequently reported adverse effects AEs other than headache were palpitations, postural dizziness and nausea. During patient studies, the most frequently reported drug-related AEs were headache, palpitations, oedema/fluid retention, nausea/vomiting, diarrhea, dizziness and abdominal pain. These effects are all likely to arise from the secondary, cardiovascular pharmacology associated with anagrelide resulting from its inhibitory effects on human phosphodiesterase III (PDE III). […] Inhibition of myocardial PDE III leads to positive inotropy (increasing of the force of contractions of the heart), increased chronotropy (increase in heart rate), and peripheral vasodilatation. Such cardiovascular manifestations of this inhibition are typically seen with the classical positive inotropes, milrinone and enoximone, and exploited in the short-term acute treatment of congestive heart failure. However, in the treatment of a so-called silent disease (i.e., asymptomatic) such as ET, the cardiovascular side-effects of palpitations and tachycardia associated with anagrelide limit its utility and a significant proportion of patients—reportedly between 25 and 50%—fail to tolerate the drug during long term treatment.

Data set [6] can be described thus: Pharmacokinetics of anagrelide and its metabolite. Type of data set: in vivo, human. Conditions: typical exposures, relative to anagrelide. The text has this:
The PDE III inhibitory properties of anagrelide are quite distinct from its platelet lowering anti-megakaryocytic effects. Indeed studies have shown no correlation between potency as a PDE III inhibitor and anti-megakaryocytic effects for anagrelide and its principal pharmacologically active metabolite, 3-hydroxyanagrelide (3-OH anagrelide or 3-HA, formerly known as SPD604 or BCH24426). […] Anagrelide's active metabolite, 3-HA, is present in vivo in amounts greatly exceeding those of the parent drug with typical exposures being 2-3 fold greater. Thus by implication 3-OH anagrelide is likely to be a major contributor to the pharmacological actions of the drug.
The metabolism of anagrelide generally proceeds extremely rapidly, resulting in a less than ideal pharmacokinetic profile of the drug. […] This, combined with the side-effects profile, can lead to poor patient compliance. Furthermore, anagrelide undergoes a large first pass effect (>50%) leading to considerable intersubject variation in achieved exposures and, therefore, potentially variable drug response. Also, exposure to the pharmacologically active metabolite varies dramatically between patients since its formation is dependent on CYP1A, an enzyme whose expression is highly dependent on exposure to inducing agents such as cigarette smoke. […]

Consider three compounds from patent publication US20110152298A1, “IMIDAZO [2,1-B] QUINAZOLIN-2-ONE DERIVATIVES AND THEIR USE AS PLATELET ANTI-AGGREGATIVE AGENTS” (SHIRE LLC, priority 2008, published 2011).

The term IC50 denotes the concentration at which inhibition is half-maximal.

Molecules are shown by their SMILES. Where only a bound is given, the exact number is not on record here.

In the case of `O=C1CN2Cc3c(ccc(Cl)c3Cl)N=C2N1` [Anagrelide, 6,7-dichloro-1,5-dihydroimidazo[2,1-b]-quinazolin-2(3H)-one], the IC50 is ~29 nM in data set [1] and ~26 nM in data set [4] (TPO-induced, dose-dependent, read-out: estimated IC50, inhibition of TPO-induced megakaryocytopoiesis). Further, the “effect on erythroid or myelomonocytic differentiation” value in data set [2] was “does not affect”. Besides, the first pass effect in data set [3] was > 50%. Further, the “time to complete response (platelet count ≦600×10^9/L)” value in the data set with platelet count is 4 to 12 weeks.
`Cc1[nH]c(=O)c(C#N)cc1-c1ccncc1` [milrinone]: the IC50 in data set [1] is 170 to 350 nM.
For the compound `O=C1NC2=Nc3ccc(Cl)c(Cl)c3CN2C1O` (stereo not shown) [3-hydroxyanagrelide], the typical half-life in data set [3] was 2.5 h. In data set [4] (relative to anagrelide), the “potency of inhibition of megakaryocytopoiesis relative to parent drug” value was “no more potent than the parent drug”. In data set [5], the “potency as PDE III inhibitor relative to anagrelide” value was “over 40 fold”. Besides, the “exposure in vivo relative to parent drug” value in data set [6] is 2-3 fold.
